The values that follow come from patent US9403756B2, “N-phenyl anthranilic acid derivatives and uses thereof” (Ramot at Tel-Aviv University Ltd., priority 2007, dated 2016).

The subject of assay [1] is hippocampal neurons. Briefly: Current-clamp recordings in cultured hippocampal neurons. In kind it is cell-based, rat. The procedure: For hippocampal neuronal cultures, Sprague-Dawley rat embryos (E18) were removed by caesarian section and their hippocampi were dissected out. The tissue was digested with papain for 20 min, triturated to a single-cell suspension, and plated at a density of 40,000 cells per ml on a substrate of bovine collagen type IV and 100 μg/ml poly-L-lysine in 13 mm diameter glass coverslips of a 24-multiwell plate. The culture medium consisted of Modified Eagle's Medium containing 5% horse serum (Biological Industries, Beit HaEmek, Israel), B-27 neuronal supplement (Invitrogen, Carlsbad, Calif.), 100 U/ml penicillin, 100 μg/ml streptomycin, and 2 mM glutamine. D-glucose was supplemented to a final concentration of 6 g/l. Cytosine-1-D-arabinofuranoside (5 μM) was added after 5 days to arrest glial cell proliferation.
For electrophysiological recordings hippocampal neurons were used at 10-14 days in culture. All cultures were maintained at 37° C. in humidified air containing 5% CO2.
For current-clamp recordings in primary cultured neurons, the patch pipettes were filled with (in mM): 135 KCl, 1 K2ATP, 1 MgATP, 2 EGTA, 1.1 CaCl2, 5 glucose, 10 HEPES, adjusted with KOH at pH 7.4 (315 mOsm). […] A liquid junction potential of about −15.6 mV was measured between the intracellular and saline solutions and corrected on-line. […]

Assay [2] concerns the target T1, Kv 2.1 (Homo sapiens, UniProt Q14721).
T1 construct: expressed in transfected cells; host or cells: Xenopus oocytes
Briefly: Kv channel selectivity, Xenopus oocytes: Kv2.1. In kind it is cell-based. As to conditions: 25 μM, +30 mV. The procedure: Voltage-clamp measurements in Xenopus oocytes were performed as previously described.
The selectivity of NH29 on other relevant Kv channels expressed in Xenopus oocytes was also studied, and the results are summarized in Table 3 below. The specificity of NH29 at 25 μM and 50 μM towards various Kv channels was tested in Xenopus oocytes, except for Kv1.2 which was checked in transfected CHO cells. The current amplitude of the various Kv channels was tested at the indicated voltages and the effect of the drugs was expressed as fold of the control amplitude measured under the same conditions in the absence of the drug. The data in Table 3 are expressed as mean±SEM of 5-7 separate experiments.

Assay [3] has as its target T2, KCNQ2 mutant R207W (Homo sapiens, UniProt O43526, R207W).
T2 construct: expressed in transfected cells; host or cells: CHO cells
The class given is cell-based. An excerpt: FIGS. 10A-D present the potentiating effect of NH29, an exemplary channel opener compound according to embodiments of the present invention, on wild type KCNQ2 (FIGS. 10A and 10B) and R207W mutant (FIGS. 10C and 10D) channels, as expressed in activation curve measurements, showing that NH29 left-shifts the activation curve (ΔV50) by −15.5 mV and −5.5 mV in the case of the wild-type and the mutant, respectively, and showing that NH29 enhances the current of wild-type and the mutant by about 3.4-fold (at −40 mV) and 1.5-fold (at −20 mV), respectively.
FIGS. 11A-F present the potentiating effect of NH29, an exemplary channel opener compound according to embodiments of the present invention, and Retigabine, on KCNQ2 mutants R207W and W236L mutant. Shown are representative traces recorded from CHO cell transfected with the KCNQ2 mutant R207W 0, 1 and 4-4.5 minutes after external application of 25 μM of NH29 and wherein the membrane potential was stepped from −90 mV holding potential to −20 mV for 1.5 seconds pulse duration (FIG. 11A), or 0, 1 and 4 minutes after external application of 25 μM of Retigabine wherein the membrane potential was stepped from −90 mV holding potential to −40 mV for 1.5 seconds pulse duration (FIG. 11B). FIGS. 11C and 11D show representative traces recorded from CHO cells transfected with the KCNQ2 mutant W236L 0, 1 and 6 minutes after external application of 25 μM of NH29 (FIG. 11C) or 0 and 5 minutes after external application of 10 μM of Retigabine (FIG. 11D) and wherein the membrane potential was stepped from −90 mV holding potential to −40 mV for 1.5 seconds pulse duration. FIG. 11E presents superimposed traces, showing the effects of Retigabine (RTG) and NH29 on the channel activity of KCNQ2 mutant W236L as measured at −40 mV; and FIG. 11F presents a bar diagram comparing the potentiating effect of NH29 and Retigabine on native KCNQ2 and KCNQ2 mutants, wherein the opener effect is expressed as percent of the control current in the absence of the opener.
Voltage-clamp recordings in CHO cells were performed, using the whole-cell configuration of the patch-clamp technique. Signals were amplified using an Axopatch 200B patch-clamp amplifier (Molecular Devices, Sunnyvale, Calif.), sampled at 2 kHz and filtered at 800 Hz via a 4-pole Bessel low pass filter. Data were acquired using pClamp 9.2 software (Molecular Devices) and an IBM compatible Pentium IV computer in conjunction with a DigiData 1322A interface (Molecular Devices). The patch pipettes were pulled from borosilicate glass (Warner Instrument Corp, USA) with a resistance of 2-5 MΩ. For K^+ current recordings in CHO cells, the intracellular pipette solution contained (in mM): 130 KCl, 1 MgCl2, 5 K2ATP, 5 EGTA, 10 HEPES, adjusted with KOH to pH 7.4 (290 mOsm). The extracellular solution contained (in mM): 140 NaCl, 4 KCl, 1.8 CaCl2, 1.2 MgCl2, 11 glucose, 5.5 HEPES, adjusted with NaOH to pH 7.4 (310 mOsm). Series resistances (3-13 MΩ) were compensated (75-90%) and periodically monitored.

Assay [4] deals with DRG neurons. As to the kind of experiment: Current-clamp recordings in cultured DRG neurons. In kind it is cell-based, rat. As to conditions: 25 μM NH29; 75-250 pA for 400 ms; control 8.7±0.8; n=12.

Molecules are shown by their SMILES.

T2 sequence (O43526 whole entry R207W): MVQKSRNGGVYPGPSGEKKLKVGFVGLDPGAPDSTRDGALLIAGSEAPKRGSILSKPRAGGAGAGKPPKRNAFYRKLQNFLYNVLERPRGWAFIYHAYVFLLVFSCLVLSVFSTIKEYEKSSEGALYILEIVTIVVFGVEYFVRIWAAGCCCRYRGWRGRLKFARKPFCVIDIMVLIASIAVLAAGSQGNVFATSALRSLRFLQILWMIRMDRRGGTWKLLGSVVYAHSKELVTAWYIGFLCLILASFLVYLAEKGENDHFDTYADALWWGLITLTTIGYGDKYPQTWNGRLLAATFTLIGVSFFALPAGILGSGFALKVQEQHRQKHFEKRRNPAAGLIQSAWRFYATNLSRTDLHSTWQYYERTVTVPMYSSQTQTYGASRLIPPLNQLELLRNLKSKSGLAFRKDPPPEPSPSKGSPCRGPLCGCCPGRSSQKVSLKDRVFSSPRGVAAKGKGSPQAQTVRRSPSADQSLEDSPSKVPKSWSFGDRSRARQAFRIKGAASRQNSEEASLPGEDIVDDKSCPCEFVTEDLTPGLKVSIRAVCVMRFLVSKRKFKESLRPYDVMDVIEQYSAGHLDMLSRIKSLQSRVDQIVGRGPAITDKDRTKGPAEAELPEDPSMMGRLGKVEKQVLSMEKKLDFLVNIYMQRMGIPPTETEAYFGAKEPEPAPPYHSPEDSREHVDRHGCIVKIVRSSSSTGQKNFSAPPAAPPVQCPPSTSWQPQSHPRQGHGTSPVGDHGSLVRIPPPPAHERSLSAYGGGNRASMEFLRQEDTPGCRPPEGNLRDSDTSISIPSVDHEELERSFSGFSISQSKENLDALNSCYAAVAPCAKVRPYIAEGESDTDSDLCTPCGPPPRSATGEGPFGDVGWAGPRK
T1 sequence (Q14721 whole entry): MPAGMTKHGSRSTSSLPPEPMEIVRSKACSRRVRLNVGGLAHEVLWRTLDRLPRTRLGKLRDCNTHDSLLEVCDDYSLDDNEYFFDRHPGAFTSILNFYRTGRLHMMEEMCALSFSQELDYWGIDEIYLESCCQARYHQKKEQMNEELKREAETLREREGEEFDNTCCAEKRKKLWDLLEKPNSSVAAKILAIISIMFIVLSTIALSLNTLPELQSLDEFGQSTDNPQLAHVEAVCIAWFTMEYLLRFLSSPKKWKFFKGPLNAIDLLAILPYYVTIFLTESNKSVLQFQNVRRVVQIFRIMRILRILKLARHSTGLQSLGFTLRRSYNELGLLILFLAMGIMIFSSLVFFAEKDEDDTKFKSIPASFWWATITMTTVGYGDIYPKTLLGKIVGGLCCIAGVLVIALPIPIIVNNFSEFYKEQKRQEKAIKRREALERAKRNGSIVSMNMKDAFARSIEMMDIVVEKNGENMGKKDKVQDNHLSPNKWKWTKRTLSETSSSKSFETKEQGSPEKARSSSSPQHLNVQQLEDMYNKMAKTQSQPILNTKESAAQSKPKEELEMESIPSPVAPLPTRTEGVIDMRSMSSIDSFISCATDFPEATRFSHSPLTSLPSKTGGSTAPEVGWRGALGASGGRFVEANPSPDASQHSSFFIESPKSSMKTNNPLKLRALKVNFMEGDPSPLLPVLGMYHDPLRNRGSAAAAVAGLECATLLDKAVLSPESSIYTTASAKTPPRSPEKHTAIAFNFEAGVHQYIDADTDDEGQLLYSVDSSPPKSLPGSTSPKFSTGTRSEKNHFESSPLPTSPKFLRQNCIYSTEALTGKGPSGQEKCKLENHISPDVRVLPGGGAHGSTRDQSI

With `O=C(Cc1cc([N+](=O)[O-])ccc1Nc1c(Cl)cccc1Cl)OCCO` [NH25], in assay [1] (25 μM NH25, 75-200 pA for 400 ms, control 9.6±1.0, n=8), the “number of evoked action potentials” value stood at 2.1±0.5. In addition, in assay [1] (NH25), the “hyperpolarization of resting membrane potential” value was −8.5 mV.
Take `O=C(Cc1cc([N+](=O)[O-])cc([N+](=O)[O-])c1Nc1c(Cl)cc([N+](=O)[O-])cc1Cl)NCCO` [NH29]: in assay [2], the Fold current amplitude is listed as 1.2 ± 0.09 fold. In addition, the “effect of point mutation R207W on the opener effect” value in assay [3] (25 μM) was “completely abolished the opener effect”. In addition, the “fold enhancement of current” value in assay [3] (25 μM NH29, at −20 mV) is on record as about 1.5 fold. In addition, the “left-shift of the activation curve (ΔV50)” value in assay [3] (NH29) is reported as −5.5 mV. For the same compound, in assay [4], the “number of evoked action potentials” value was 0.9±0.1.
